Active and inactive are the calls of the source. The rule behind the calls is not given here.
What was measured:
[1] = tested on: MDA-MB-231; experiment: Antiproliferative activity against human MDA-MB-231 cells assessed as inhibition of cell growth measured after 72 hrs by WST-8 method; assay type: functional, cell-based; details: MDA-MB-231, 72 h
[2] = tested on: A549; experiment: Antiproliferative activity against human A549 cells assessed as inhibition of cell growth measured after 72 hrs by WST-8 method; assay type: functional, cell-based; details: A549, 72 h
[3] = biological target: Signal transducer and activator of transcription 3 (Homo sapiens) (UniProt P40763); experiment: Inhibition of IL-6 stimulated STAT3 phosphorylation in human A549 cells at <0.1 uM preincubated for 1 hr followed by IL-6 stimulation and measured after 1 hrs by Western blot analysis relative to control; assay type: cell-based; details: time 2.0 hrs
Signal transducer and activator of transcription 3 (Homo sapiens), sequence (P40763 whole entry): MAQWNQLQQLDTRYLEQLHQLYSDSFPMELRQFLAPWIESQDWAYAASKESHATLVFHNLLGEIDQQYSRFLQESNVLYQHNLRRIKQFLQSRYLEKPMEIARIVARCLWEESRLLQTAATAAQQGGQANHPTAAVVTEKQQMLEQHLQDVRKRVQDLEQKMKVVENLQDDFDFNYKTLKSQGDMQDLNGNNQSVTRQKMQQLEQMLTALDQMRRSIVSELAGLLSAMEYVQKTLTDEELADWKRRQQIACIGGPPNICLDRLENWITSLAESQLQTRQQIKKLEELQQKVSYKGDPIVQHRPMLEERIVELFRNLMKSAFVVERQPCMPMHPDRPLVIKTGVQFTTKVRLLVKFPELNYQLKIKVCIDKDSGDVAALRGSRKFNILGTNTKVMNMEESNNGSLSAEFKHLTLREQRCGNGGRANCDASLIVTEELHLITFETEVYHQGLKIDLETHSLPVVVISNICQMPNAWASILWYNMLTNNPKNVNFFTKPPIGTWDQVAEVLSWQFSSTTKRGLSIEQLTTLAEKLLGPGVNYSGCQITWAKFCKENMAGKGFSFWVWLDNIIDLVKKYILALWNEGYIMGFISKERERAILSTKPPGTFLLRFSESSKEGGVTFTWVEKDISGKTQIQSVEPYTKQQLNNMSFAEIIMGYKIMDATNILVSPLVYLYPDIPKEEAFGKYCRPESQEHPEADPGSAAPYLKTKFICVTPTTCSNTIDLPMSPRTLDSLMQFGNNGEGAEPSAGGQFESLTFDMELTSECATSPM

[4] = biological target: Signal transducer and activator of transcription 3 (Homo sapiens) (UniProt P40763); experiment: Inhibition of STAT3 phosphorylation in human A549 cells assessed as decrease in IL-6 stimulated STAT3 phosphorylation at 0.5 to 3 uM preincubated for 1 hr followed by IL-6 stimulation and measured after 1 hrs by Western blot analysis; assay type: cell-based; details: dose 0.5-3 µM, time 2.0 hrs
[5] = tested on: A549; experiment: Antiproliferative activity against human A549 cells measured after 24 hrs by MTT assay; assay type: functional, cell-based; details: A549, 24 h
[6] = biological target: Signal transducer and activator of transcription 3 (Homo sapiens) (UniProt P40763); experiment: Inhibition of IL-6 stimulated STAT3 phosphorylation in human A549 cells at 10 uM preincubated for 1 hr followed by IL-6 stimulation and measured after 1 hrs by Western blot analysis; assay type: cell-based; details: time 2.0 hrs

| IC50 [1] [nM] | IC50 [2] [nM] | inhibition [3] [%] | inhibition [4] | IC50 [5] [nM] | inhibition [6] | Structure (SMILES) |
| --- | --- | --- | --- | --- | --- | --- |
| 110 | 140 | – | – | – | – | CC(=O)c1cc2c(o1)C(=O)c1ccc(S(N)(=O)=O)cc1C2=O |
| 2400 | 390 | 100 | Active | – | – | C[C@H](O)c1cc2c(o1)-c1cccc(O)c1C(=O)C2=O |
| 89 | 54 | 100 | Active | – | – | CC(=O)c1cc2c(o1)C(=O)c1cccc3c1C2=NS3(=O)=O |
| 1500 | 1700 | – | Active | – | – | CC(=O)c1cc2c(o1)-c1ccccc1C(=O)C2=O |
| 770 | 1200 | – | Active | – | – | CC(O)c1cc2c(o1)C(=O)c1cccc(S(=O)(=O)N(C)C)c1C2=O (configuration not stated) |
| – | – | – | – | ≤ 4660 | – | O=C1C(Nc2ccccc2N2CCNCC2)=CC2=NS(=O)(=O)c3cccc1c32 |
| 1400 | 630 | – | – | – | inactive | CC1(C)CCC2=C(O1)c1cccc(O)c1C(=O)C2=O |
| 350 | 160 | – | – | – | – | C[C@H](O)c1cc2c(o1)C(=O)c1cccc(O)c1C2=O |
| 310 | 490 | – | – | – | – | CC(O)c1cc2c(o1)C(=O)c1ccc(S(N)(=O)=O)cc1C2=O (configuration not stated) |
| 1400 | 620 | 100 | Active | – | – | CC(=O)c1cc2c(o1)-c1cccc(O)c1C(=O)C2=O |
| 49 | 34 | 100 | Active | – | – | CC(O)c1cc2c(o1)C(=O)c1cccc3c1C2=NS3(=O)=O (configuration not stated) |
